According to patent US10329261B1, “Method of preparing 6-chloro-5-nitro-2,4-diaminopyrimidine and its application thereof” (XI'AN TAIKOMED PHARMACEUTICAL TECHNOLOGY CO., LTD., priority 2018, dated 2019):
One block for each compound: values may come before it.

Columns and labels:
[1] = test system: HL-60; assay: CCK8 assay, growth inhibition of leukemia cells; type: cell-based; conditions: for inhibition at 1 µM / inhibition at 5 µM / inhibition at 10 µM / inhibition at 50 µM / inhibition at 100 µM: Homo sapiens, 48 hours, read-out: Inhibition Rate % (X ± SD, n = 5); for inhibition at 1 µM: HL-60, 1 μmol/L; for inhibition at 5 µM: HL-60, 5 μmol/L; for inhibition at 10 µM: HL-60, 10 μmol/L; for inhibition at 50 µM: HL-60, 50 μmol/L; for inhibition at 100 µM: HL-60, 100 μmol/L
Experimental: (§1) Measuring the Inhibitory Effect of 6-Chloro-5-Nitro-2,4-Diaminopyrimidine on the Growth of Six Leukemia Cells by CCK8 Assay
(§2) Cell lines: HL-60 (acute myeloid leukemia), Jurkat (acute T cell leukemia), K562 (chronic myeloid leukemia), EOL-1 (human eosinophil leukemia), Dami (human megakaryocytic leukemia), 6T-CEM (human T cell leukemia) were provided by the Affiliated Hospital of Guangdong Medical College. The cells were cultured in RPMI1640 medium containing 10% fetal bovine serum, penicillin 100 U/mL, streptomycin 100 mg/L, at 37° C., 5% CO2, and saturated humidity, in incubator, and logarithmic growth phase cells were used for experiments.
(§3) Test compounds: Imatinib solution and 6-chloro-5-nitro-2,4-diaminopyrimidine solution were prepared with physiological saline, and the final concentrations of the compounds were 1, 5, 10, 50, and 100 μmol/L.
(§4) Test method: Take the logarithmic growth leukemia cell lines, count, and inoculate at a density of 1×10^5/mL in a 96-well culture plate, 100 μL per well. After 24 hours of culture, 100 μL medium containing the different concentrations (double the target/final concentration) of compounds was added to each well. The medium containing the highest concentration of DMSO was used as a control. After 48 hours, 20 μL of CCK8 coloring solution was added to each well, the color was developed at 37° C., and OD450 was measured with a microplate reader until the absorbance was about 1.5. The inhibition rate was calculated by the following formula. Inhibition Rate (%)=(1−absorbance of the test compound/absorbance of the control)×100%

[2] = test system: Jurkat; assay: CCK8 assay, growth inhibition of leukemia cells; type: cell-based; conditions: for inhibition at 1 µM / inhibition at 5 µM / inhibition at 10 µM / inhibition at 50 µM / inhibition at 100 µM: Homo sapiens, 48 hours, read-out: Inhibition Rate % (X ± SD, n = 5); for inhibition at 1 µM: 1 μmol/L; for inhibition at 5 µM: 5 μmol/L; for inhibition at 10 µM: 10 μmol/L; for inhibition at 50 µM: 50 μmol/L; for inhibition at 100 µM: 100 μmol/L
Experimental: as §1, §2, §3, §4

[3] = test system: K-562; assay: CCK8 assay, growth inhibition of leukemia cells; type: cell-based; conditions: for inhibition at 1 µM / inhibition at 5 µM / inhibition at 10 µM / inhibition at 50 µM / inhibition at 100 µM: Homo sapiens, K562, 48 hours, read-out: Inhibition Rate % (X ± SD, n = 5); for inhibition at 1 µM: K-562, 1 μmol/L; for inhibition at 5 µM: K-562, 5 μmol/L; for inhibition at 50 µM: K-562, 50 μmol/L; for inhibition at 100 µM: K-562, 100 μmol/L
Experimental: as §1, §2, §3, §4

[4] = test system: 6T-CEM; assay: CCK8 assay, growth inhibition of leukemia cells; type: cell-based, human; conditions: for inhibition at 1 µM / inhibition at 5 µM / inhibition at 10 µM / inhibition at 50 µM / inhibition at 100 µM: Homo sapiens, 48 hours, read-out: Inhibition Rate % (X ± SD, n = 5); for inhibition at 1 µM: 1 μmol/L; for inhibition at 5 µM: 5 μmol/L; for inhibition at 10 µM: 10 μmol/L; for inhibition at 50 µM: 50 μmol/L; for inhibition at 100 µM: 100 μmol/L
Experimental: as §1, §2, §3, §4

[5] = test system: Dami; assay: CCK8 assay, growth inhibition of leukemia cells; type: cell-based, human; conditions: for inhibition at 1 µM / inhibition at 5 µM / inhibition at 10 µM / inhibition at 50 µM / inhibition at 100 µM: Homo sapiens, 48 hours, read-out: Inhibition Rate % (X ± SD, n = 5); for inhibition at 1 µM: 1 μmol/L; for inhibition at 5 µM: 5 μmol/L; for inhibition at 10 µM: 10 μmol/L; for inhibition at 50 µM: 50 μmol/L; for inhibition at 100 µM: 100 μmol/L
Experimental: as §1, §2, §3, §4

[6] = test system: EOL-1; assay: CCK8 assay, growth inhibition of leukemia cells; type: cell-based, human; conditions: for inhibition at 1 µM / inhibition at 5 µM / inhibition at 10 µM / inhibition at 50 µM / inhibition at 100 µM: Homo sapiens, EOL1, 48 hours, read-out: Inhibition Rate % (X ± SD, n = 5); for inhibition at 1 µM: EOL-1, 1 μmol/L; for inhibition at 5 µM: EOL-1, 5 μmol/L; for inhibition at 10 µM: EOL-1, 10 μmol/L; for inhibition at 50 µM: EOL-1, 50 μmol/L; for inhibition at 100 µM: EOL-1, 100 μmol/L
Experimental: as §1, §2, §3, §4

[7] = test system: K-562 leukemia; assay: Inhibition test of nude mice inoculated with K-562 cell line; type: in vivo; conditions: for Tumor weight (X ± SE) / Inhibition (%): ip × 7, nude mice with K-562; for Tumor weight (X ± SE): in g (unit assumed); for Inhibition (%): tumor inhibition rate
Experimental: Inhibition Test of Nude Mice Inoculated with K-562 Cell Line
Test compounds: 6-chloro-5-nitro-2,4-diaminopyrimidine and imatinib dissolved in normal saline.
Administration route: intraperitoneal injection (ip).
Test animals: nude mice, SPF level.
Cell line: chronic myeloid leukemia cell line K-562, from the Affiliated Hospital of Guangdong Medical College
Test method: 50 nude mice weighing 18-22 grams, both male and female. The K-562 cell was diluted to a final concentration of 10 million cells/mL for leukemia cells; each mouse was inoculated subcutaneously with 0.2 mL (containing […] leukemia cells). On the next day, the mice were randomly divided to 5 groups: 6-chloro-5-nitro-2,4-diaminopyrimidine group (dose: 3 mg/kg), 6-chloro-5-nitro-2,4-diaminopyrimidine group (dose: 8 mg/kg), 6-chloro-5-nitro-2,4-diaminopyrimidine group (dose: 20 mg/kg), positive control group (imatinib, 8 mg/kg) and blank control group. The 6-chloro-5-nitro-2,4-diaminopyrimidine groups and the positive control group were administered once a day for 7 consecutive days; the blank control group was given a corresponding volume of NS liquid. No test compounds were given for one day after the last dose. Animals were sacrificed by cervical dislocation, and weighed and dissected to weigh. The tumor weights were calculated for each group. The leukemia inhibition rate was calculated according to the following formula. Tumor inhibition rate=(mean tumor weight in the control group−average tumor weight in the administration group)/mean tumor weight in the control group×100%,

Compound: Nc1nc(N)c([N+](=O)[O-])c(Cl)n1 [6-chloro-5-nitro-2,4-diaminopyrimidine]
- inhibitory effect on the cell line (in words) ([1]; HL-60): does not show any inhibition
- inhibition at 1 µM [1]: 3.87%
- inhibition at 5 µM [1]: -1.12%
- inhibition at 10 µM [1]: -7.66%
- inhibition at 50 µM [1]: -9.26%
- inhibition at 100 µM [1]: -14.2%
- inhibitory effect on the cell line (in words) [2]: does not show any inhibition
- inhibition at 1 µM [2]: -13.5%
- inhibition at 5 µM [2]: -15.9%
- inhibition at 10 µM [2]: -27%
- inhibition at 50 µM [2]: -28.1%
- inhibition at 100 µM [2]: -30%
- inhibition at 1 µM [3]: 45.5%
- inhibition at 5 µM [3]: 61.5%
- inhibition at 10 µM ([3]; K-562, 10 μmol/L): 76.8%
- inhibition at 50 µM [3]: 77.3%
- inhibition at 100 µM [3]: 78.4%
- inhibition rate compared with imatinib ([3]; K-562, 10 μmol/L): exceeds that of imatinib
- inhibitory effect on the cell line (in words) ([3]; K-562 cell line): good inhibitory effect
- selectivity among the six leukemia cell lines (in words) ([3]; K-562 versus HL-60, Jurkat, EOL-1, Dami, 6T-CEM): selectively inhibits chronic myelogenous leukemia cell line
- inhibitory effect on the cell line (in words) [4]: does not show any inhibition
- inhibition at 1 µM [4]: -17.5%
- inhibition at 5 µM [4]: -21.1%
- inhibition at 10 µM [4]: -25.5%
- inhibition at 50 µM [4]: -28.1%
- inhibition at 100 µM [4]: -31%
- inhibitory effect on the cell line (in words) [5]: does not show any inhibition
- inhibition at 1 µM [5]: -14.2%
- inhibition at 5 µM [5]: -17.7%
- inhibition at 10 µM [5]: -22%
- inhibition at 50 µM [5]: -26%
- inhibition at 100 µM [5]: -30.3%
- inhibitory effect on the cell line (in words) ([6]; EOL-1): does not show any inhibition
- inhibition at 1 µM [6]: -22.4%
- inhibition at 5 µM [6]: -23%
- inhibition at 10 µM [6]: -23.3%
- inhibition at 50 µM [6]: -19.3%
- inhibition at 100 µM [6]: -18.9%
- Tumor weight (X ± SE) ([7]; 3 mg/kg): 1.84
- Tumor weight (X ± SE) ([7]; 8 mg/kg): 0.87
- Tumor weight (X ± SE) ([7]; 20 mg/kg): 0.74
- Inhibition (%) ([7]; 3 mg/kg): 48.41%
- Inhibition (%) ([7]; 8 mg/kg): 75.18%
- Inhibition (%) ([7]; 20 mg/kg): 79.34%

- Number of mice before and after ([7]; 8 mg/kg, ip × 7): 10/10
- Mouse weight after ([7]; 8 mg/kg, ip × 7, weight before 19.5): 20.4
Compound: Cc1ccc(NC(=O)c2ccc(CN3CCN(C)CC3)cc2)cc1Nc1nccc(-c2cccnc2)n1 [Imatinib, reference compound]
- inhibition at 1 µM [1]: 62.2%
- inhibition at 5 µM [1]: 69.5%
- inhibition at 10 µM [1]: 64.6%
- inhibition at 50 µM [1]: 83.1%
- inhibition at 100 µM [1]: 84.5%
- inhibition at 1 µM [2]: 66.7%
- inhibition at 5 µM [2]: 71%
- inhibition at 10 µM [2]: 73.3%
- inhibition at 50 µM [2]: 85.7%
- inhibition at 100 µM [2]: 90.9%
- inhibition at 1 µM [3]: 66.4%
- inhibition at 5 µM [3]: 67.9%
- inhibition at 10 µM ([3]; K-562, 10 μmol/L): 71.6%
- inhibition at 50 µM [3]: 83.1%
- inhibition at 100 µM [3]: 88.3%
- inhibition at 1 µM [4]: 68.2%
- inhibition at 5 µM [4]: 70.8%
- inhibition at 10 µM [4]: 74.9%
- inhibition at 50 µM [4]: 86.5%
- inhibition at 100 µM [4]: 91.3%
- inhibition at 1 µM [5]: 61.3%
- inhibition at 5 µM [5]: 65.4%
- inhibition at 10 µM [5]: 69.3%
- inhibition at 50 µM [5]: 82.1%
- inhibition at 100 µM [5]: 89.4%
- inhibition at 1 µM [6]: 63.6%
- inhibition at 5 µM [6]: 66.2%
- inhibition at 10 µM [6]: 68.4%
- inhibition at 50 µM [6]: 79.1%
- inhibition at 100 µM [6]: 86.4%
- Tumor weight (X ± SE) ([7]; 8 mg/kg): 0.93
- Inhibition (%) ([7]; 8 mg/kg): 74.02%
